Data published in PubChem BioAssay AID248 (DTP/NCI, 2004).
Several values for one entry are separate records, joined by “and”; a condition that tells them apart may be missing. Equal values may be shown once. Inconclusive results and toxic doses are left out. No stated cut-off is given here; in the data, active means T/C of 150% or more; inactive means T/C below 125%.

Test system: L1210 leukemia ip in BDF1 mice, survival T/C
Test: NCI In Vivo Anticancer Drug Screen. Data for tumor model L1210 Leukemia (intraperitoneal) in B6D2F1 (BDF1) mice
Settings: endpoint: mean survival time, higher = longer survival
Method in brief: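 Value reflects the ratio of survival in compound-treated mice to survival in vehicle-treated controls, with both groups carrying the same transplanted tumor.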

[1] = dose: 100.0 mg/kg/injection, schedule: Q01DX001 (ip), vehicle: saline
[2] = dose: 100.0 mg/kg/injection, schedule: Q04DX003 (ip), vehicle: Klucel (hydroxypropylcellulose) (HPC)
[3] = dose: 200.0 mg/kg/injection, schedule: Q04DX003 (ip), vehicle: Klucel (hydroxypropylcellulose) (HPC)
[4] = dose: 400.0 mg/kg/injection, schedule: Q04DX003 (ip), vehicle: Klucel (hydroxypropylcellulose) (HPC)
[5] = dose: 200.0 mg/kg/injection, schedule: Q01DX001 (ip), vehicle: saline
[6] = dose: 400.0 mg/kg/injection, schedule: Q01DX001 (ip), vehicle: saline
[7] = dose: 100.0 mg/kg/injection, schedule: Q01DX009 (ip), vehicle: saline with Tween-80
[8] = dose: 100.0 mg/kg/injection, schedule: Q04DX002 (ip), vehicle: saline with Tween-80
[9] = dose: 100.0 mg/kg/injection, schedule: Q04DX003 (ip), vehicle: saline with Tween-80
[10] = dose: 200.0 mg/kg/injection, schedule: Q01DX009 (ip), vehicle: saline with Tween-80
[11] = dose: 200.0 mg/kg/injection, schedule: Q04DX002 (ip), vehicle: saline with Tween-80
[12] = dose: 200.0 mg/kg/injection, schedule: Q04DX003 (ip), vehicle: saline with Tween-80
[13] = dose: 400.0 mg/kg/injection, schedule: Q04DX002 (ip), vehicle: saline with Tween-80
[14] = dose: 400.0 mg/kg/injection, schedule: Q04DX003 (ip), vehicle: saline with Tween-80
[15] = dose: 100.0 mg/kg/injection, schedule: Q01DX009 (ip), vehicle: Klucel (hydroxypropylcellulose) (HPC)
[16] = dose: 200.0 mg/kg/injection, schedule: Q01DX009 (ip), vehicle: Klucel (hydroxypropylcellulose) (HPC)
[17] = dose: 400.0 mg/kg/injection, schedule: Q01DX009 (ip), vehicle: Klucel (hydroxypropylcellulose) (HPC)
[18] = dose: 200.0 mg/kg/injection, schedule: Q01DX001 (ip), vehicle: carboxymethylcellulose (CMC)
[19] = dose: 100.0 mg/kg/injection, schedule: Q04DX003 (ip), vehicle: saline
[20] = dose: 200.0 mg/kg/injection, schedule: Q04DX003 (ip), vehicle: saline
[21] = dose: 400.0 mg/kg/injection, schedule: Q04DX003 (ip), vehicle: saline
[22] = dose: 100.0 mg/kg/injection, schedule: Q01DX009 (ip), vehicle: saline
[23] = dose: 200.0 mg/kg/injection, schedule: Q01DX009 (ip), vehicle: saline
[24] = dose: 400.0 mg/kg/injection, schedule: Q01DX009 (ip), vehicle: saline

Measured: T/C

[Br][Hg][c]1ccccc1
inactive: dose: 75.0 mg/kg/injection, schedule: Q01DX001 (ip), vehicle: carboxymethylcellulose (CMC) 108 % of control

Cc1ccc(N(CCO)CCO)cc1
inactive: dose: 50.0 mg/kg/injection, schedule: Q01DX001 (ip), vehicle: saline 93 % of control | [1] 102 % of control

Cc1cc(C)c(C(N)=O)c(N)n1
inactive: [2] 105 % of control | [3] 90 % of control | [4] 106 % of control

NC(=O)C(F)(F)c1ccccc1
inactive: [1] 105 % of control | [5] 103 % of control | [6] 102 % of control

Cc1ccc(Cl)cc1NC(=O)Nc1ccccc1O
inactive: dose: 100.0 mg/kg/injection, schedule: Q01DX001 (ip), vehicle: saline with Tween-80 95 % of control | [7] 94 % of control and 97 % of control | [8] 94 % of control and 95 % of control | [9] 106 % of control | dose: 200.0 mg/kg/injection, schedule: Q01DX001 (ip), vehicle: saline with Tween-80 95 % of control | [10] 94 % of control and 92 % of control | [11] 94 % of control and 106 % of control | [12] 103 % of control | dose: 400.0 mg/kg/injection, schedule: Q01DX001 (ip), vehicle: saline with Tween-80 93 % of control | dose: 400.0 mg/kg/injection, schedule: Q01DX009 (ip), vehicle: saline with Tween-80 109 % of control and 115 % of control | [13] 93 % of control and 91 % of control | [14] 94 % of control

Nc1nc(-c2ccccc2N=NN2CCCCC2)nc2ccccc12
inactive: dose: 50.0 mg/kg/injection, schedule: Q01DX009 (ip), vehicle: Klucel (hydroxypropylcellulose) (HPC) 107 % of control | [15] 118 % of control | [2] 109 % of control | [16] 107 % of control | [3] 104 % of control

CC(N)C12CC3CC(CC(C3)C1)C2 (stereo unspecified)
inactive: dose: 75.0 mg/kg/injection, schedule: Q01DX009 (ip), vehicle: saline 94 % of control

CCOC(=O)C(C(=O)OCC)N1C(=O)c2ccccc2C1=O
inactive: [15] 100 % of control | [2] 106 % of control and 102 % of control | [16] 102 % of control | [3] 105 % of control and 104 % of control | [17] 102 % of control | [4] 101 % of control and 100 % of control

CN(C)N=Nc1ccc(C(=O)N/N=C/c2ccc(Cl)cc2)cc1
inactive: dose: 50.0 mg/kg/injection, schedule: Q04DX003 (ip), vehicle: Klucel (hydroxypropylcellulose) (HPC) 99 % of control | [2] 97 % of control | [3] 103 % of control

CC(=O)NCCCOc1ccc(N)cc1
inactive: [1] 96 % of control | [5] 102 % of control | [6] 105 % of control

CCC(=O)OC1(c2ccccc2)CCN(CCC(O)c2ccco2)CC1 (stereo unspecified)
inactive: dose: 40.0 mg/kg/injection, schedule: Q01DX009 (ip), vehicle: Klucel (hydroxypropylcellulose) (HPC) 97 % of control | dose: 80.0 mg/kg/injection, schedule: Q01DX009 (ip), vehicle: Klucel (hydroxypropylcellulose) (HPC) 98 % of control | dose: 160.0 mg/kg/injection, schedule: Q01DX009 (ip), vehicle: Klucel (hydroxypropylcellulose) (HPC) 98 % of control

CCCCNC(=O)OCc1cnc(C)n1Cc1ccccc1
inactive: dose: 25.0 mg/kg/injection, schedule: Q01DX009 (ip), vehicle: other 93 % of control and 107 % of control | dose: 100.0 mg/kg/injection, schedule: Q01DX001 (ip), vehicle: carboxymethylcellulose (CMC) 104 % of control | dose: 100.0 mg/kg/injection, schedule: Q04DX002 (ip), vehicle: Klucel (hydroxypropylcellulose) (HPC) 94 % of control | dose: 100.0 mg/kg/injection, schedule: Q04DX002 (ip), vehicle: other 96 % of control and 105 % of control | [18] 108 % of control | dose: 200.0 mg/kg/injection, schedule: Q04DX002 (ip), vehicle: Klucel (hydroxypropylcellulose) (HPC) 98 % of control | dose: 200.0 mg/kg/injection, schedule: Q04DX002 (ip), vehicle: other 93 % of control and 86 % of control | dose: 400.0 mg/kg/injection, schedule: Q04DX002 (ip), vehicle: Klucel (hydroxypropylcellulose) (HPC) 94 % of control

CC(C)(C#N)C(C)(C)c1cnc2ccccc2c1
inactive: [2] 96 % of control | [3] 101 % of control

O=C(O)c1ccc(Br)c([N+](=O)[O-])c1
inactive: [15] 95 % of control | [16] 94 % of control | [17] 92 % of control

CO[N+](=O)c1cc(C(C)(C)C)c([O-])c(C(C)(C)C)c1
inactive: dose: 100.0 mg/kg/injection, schedule: Q01DX001 (ip), vehicle: Klucel (hydroxypropylcellulose) (HPC) 88 % of control | dose: 200.0 mg/kg/injection, schedule: Q01DX001 (ip), vehicle: Klucel (hydroxypropylcellulose) (HPC) 88 % of control | dose: 400.0 mg/kg/injection, schedule: Q01DX001 (ip), vehicle: Klucel (hydroxypropylcellulose) (HPC) 92 % of control

CC(=O)CC(=O)NCCNC(=O)CC(C)=O
inactive: [19] 101 % of control | [20] 100 % of control | [21] 100 % of control

Brc1ccc([Si](c2ccccc2)(c2ccccc2)c2ccccc2)cc1
inactive: [9] 97 % of control | [12] 92 % of control | [14] 89 % of control

COc1ccc(C(=NO)c2ccc(OC)cc2)cc1
inactive: [22] 102 % of control | [19] 104 % of control | [23] 102 % of control | [20] 93 % of control | [24] 107 % of control | [21] 95 % of control

Nc1sc(C(=O)O)cc1[N+](=O)[O-]
inactive: [18] 92 % of control | dose: 400.0 mg/kg/injection, schedule: Q01DX001 (ip), vehicle: carboxymethylcellulose (CMC) 92 % of control

N#C/C(=C\c1cccc2ccccc12)c1ccc(Cl)cc1
inactive: dose: 87.5 mg/kg/injection, schedule: Q01DX009 (ip), vehicle: Klucel (hydroxypropylcellulose) (HPC) 95 % of control | dose: 175.0 mg/kg/injection, schedule: Q01DX009 (ip), vehicle: Klucel (hydroxypropylcellulose) (HPC) 96 % of control | dose: 350.0 mg/kg/injection, schedule: Q01DX009 (ip), vehicle: Klucel (hydroxypropylcellulose) (HPC) 97 % of control

c1ccc(C2(c3ccccc3)CC([P+](c3ccccc3)(c3ccccc3)c3ccccc3)N=N2)cc1 (stereo unspecified)
inactive: dose: 10.0 mg/kg/injection, schedule: Q01DX001 (ip), vehicle: saline 103 % of control | dose: 20.0 mg/kg/injection, schedule: Q01DX001 (ip), vehicle: saline 111 % of control | dose: 40.0 mg/kg/injection, schedule: Q01DX001 (ip), vehicle: saline 112 % of control

Cc1ccc(C)c(S(=O)(=O)OCC#CCOS(=O)(=O)c2cc(C)ccc2C)c1
inactive: dose: 50.0 mg/kg/injection, schedule: Q01DX009 (ip), vehicle: saline with Tween-80 92 % of control | [7] 92 % of control | [19] 97 % of control | [10] 87 % of control | [20] 97 % of control | [21] 91 % of control

Cc1ccc(NC(=O)CI)cc1
inactive: dose: 50.0 mg/kg/injection, schedule: Q04DX002 (ip), vehicle: other 100 % of control

CCOC(=O)CNCc1ccc(F)cc1
inactive: [22] 105 % of control | [19] 104 % of control | [23] 103 % of control | [20] 110 % of control | [24] 88 % of control | [21] 100 % of control

[O-][n+]1onc(-c2ccccn2)c1-c1ccccn1
inactive: [8] 95 % of control | [11] 100 % of control | [13] 103 % of control

COc1ccc(C(=O)c2ccccc2)c(O)c1
inactive: [2] 101 % of control | [3] 97 % of control | [4] 90 % of control

O=P(OCc1ccccc1)(N(CCCl)CCCl)N1CCCC1 (stereo unspecified)
inactive: dose: 16.0 mg/kg/injection, schedule: Q01DX Z (ip), vehicle: saline 92 % of control | dose: 32.0 mg/kg/injection, schedule: Q01DX Z (ip), vehicle: saline 90 % of control | dose: 64.0 mg/kg/injection, schedule: Q01DX Z (ip), vehicle: saline 101 % of control | dose: 128.0 mg/kg/injection, schedule: Q01DX Z (ip), vehicle: saline 106 % of control
